Here are results for 15 compounds from patent US20260242391A1 (priority 2023, published 2026).

As usually defined, the IC50 is the concentration at which inhibition is half-maximal. A high value points to a need for much substance. By EC50 is commonly meant the concentration at which the effect is half-maximal.

Read-outs that look alike come from different tables or passages of the source.

For data set [1], the system named is HL-60.
For data set [2], the system named is HL-60. Briefly: HL-60 differentiation potency. Format: cell-based. Particulars: Homo sapiens.
Data set [3] relates to HL-60. Briefly: HL-60 differentiation potency. Format: cell-based. The following applies: Homo sapiens. This is another data set of the same source.
Data set [4] deals with HL-60. This is another data set of the same source.
Data set [5] concerns MDS-L cells. As to the kind of experiment: Labile heme levels of MDS-L cells. In kind it is cell-based. Particulars: over relevant time periods (FIG. 4B).
Data set [6] relates to MDS-L cells. As to the kind of experiment: Loss of CD71 in MDS-L cells. In kind it is cell-based.
For data set [7], the system named is MDS-L cells. Briefly: CFU assays with MDS-L cells. In kind it is cell-based.
In data set [8] the test system is MDS-L cells.
Data set [9] concerns MDS-L cells. Briefly: cells. Particulars: read-out: MDS-L GlyA induction EC50.
Experimental: MDS-L differentiation assay.
(§1) MDS-L were cultured in RPMI (17-105-CV, Corning) without phenol red and supplemented with 2 mM glutamine and 10% FBS. Cells first expanded in IL-3 until 70% confluence then pre-conditioned for 14 days with IL-3 (200-03, PeproTech), GCSF (300-23, PeproTech), and EPO (287-TC, R&D Systems) to promote erythroid and myeloid differentiation. A density of 10,000 cells per well were used in phenotypic assays. MDSL cells were spun and treatment media was replaced with media containing APC Anti-CD235a (GlyA) (551336, BD Biosciences) (1.25 μL per 50 L test) and incubated for 1 hour at 4° C. Cells were washed then counter stained with SYTOX-Green 1 M per 100 L prior to flow cytometry analysis. Dose response and pharmacological assays were analyzed using a ZE5 Cell Analyzer (BioRad) equipped with Everest software. Single, live, cells were analyzed for GlyA expression using FlowJo v10.7.2 software.
Data set [10] has as its system MDS-L cells. Particulars: for EC50: read-out: MDS-L GlyA induction EC50; for Induction of differentiation of MDS-L cells (GlyA positivity), in words: anti-GlyA immunopositivity.
Experimental: MDS-L differentiation assay.
as §1
Where [11] appears, read: MDS-L cells, anti-CD235a (GlyA) flow cytometry.

For the compound `C[C@H]1[C@@H](OC[C@H]2CC[C@@H](C(=O)N[C@H]3CC[C@@H](C(=O)O)C3)CC2)O[C@@H]2O[C@@]3(C)CC[C@H]4[C@H](C)CC[C@@H]1[C@@]24OO3` [Compound 267, (1R,3S)-3-((1R,4R)-4-((((3R,5aS,6R,8aS, 9R,10S,12R, 12aR)-3,6,9-trimethyldeca-hydro-12H-3,12-epoxy[1,2]dioxepino[4,3-i]isochromen-10-yl)oxy)methyl)cyclohexane-1-carboxamido) cyclopentane-1-carboxylic acid], the IC50 with HL-60 [1] was 20000 nM. In addition, a half-maximal response with HL-60 [2] (EC50) required 156 nM.

In the data set with HL-60 [3], `C[C@H]1[C@@H](Oc2cc(F)c(CC(=O)O)c(F)c2)O[C@@H]2O[C@@]3(C)CC[C@H]4[C@H](C)CC[C@@H]1[C@@]24OO3` [Compound 22, 2-(2,6-difluoro-4-(((3R,5aS,6R, 8aS,9R,10S,12R, 12aR)-3,6,9-trimethyldeca-hydro-12H-3,12-epoxy[1,2]dioxepino[4,3-i]isochromen-10-yl)oxy)phenyl) acetic acid] showed an EC50 of 131 nM. Half-maximal inhibition in the data set with HL-60 [4] (IC50) was put at 20000 nM.

As to `C[C@H]1[C@H](N2CCS(=O)(=O)CC2)O[C@@H]2O[C@@]3(C)CC[C@H]4[C@H](C)CC[C@@H]1[C@@]24OO3` [artemisone], the “Levels of labile heme in MDS-L cells” value in the data set on MDS-L cells [5] was “efficiently reduced”. For the same compound, the “Loss of CD71” value with MDS-L cells [6] is recorded as “efficaciously promoted the loss of CD71”. Moreover, the “Terminal differentiation of MDS-L cells to CFU-Es while decreasing BFU-E, CFU-GM and CFU-GEMM type colonies” value in the data set on MDS-L cells [7] is recorded as “efficaciously induced terminal differentiation”. Besides, the Induction in apoptosis result in the data set with MDS-L cells [8] is “no significant induction”. Also, the EC50 in the data set on MDS-L cells [9] worked out at 150 nM. Further, in the data set on MDS-L cells [10] (human), the “Maximal MDS-L GlyA fold induction” value stood at 6.84 fold.

For `C[C@H]1[C@H](OC(=O)CCC(=O)O)O[C@@H]2O[C@@]3(C)CC[C@H]4[C@H](C)CC[C@@H]1[C@@]24OO3` [Artesunate, artesunate], the EC50 in the data set with MDS-L cells [9] came to 850 nM. Besides, the “Maximal MDS-L GlyA fold induction” value in the data set with MDS-L cells [10] (human) is reported as 7.51 fold.

Take Arterolane [Arterolane (OZ-277)]: in the data set on MDS-L cells [10] (setting [11]), the “Maximal MDS-L GlyA fold induction” value was determined as 7.02 fold and the EC50 was 1740 nM.

For `C[C@H]1[C@H](Oc2cc(F)c(CC(=O)O)c(F)c2)O[C@@H]2O[C@@]3(C)CC[C@H]4[C@H](C)CC[C@@H]1[C@@]24OO3` [Compound 14, 2-(2,6-difluoro-4-(((3R,5aS,6R, 8aS,9R,10R,12R, 12aR)-3,6,9-trimethyldeca-hydro-12H-3,12-epoxy[1,2]dioxepino[4,3-i]isochromen-10-yl)oxy)phenyl) acetic acid], the EC50 in the data set with HL-60 [3] was 90.9 nM. Moreover, in the data set with HL-60 [4], the IC50 amounted to 20000 nM.

In turn, `CC(C)[C@H](NC(=O)Cc1ccc(O[C@H]2O[C@@H]3O[C@@]4(C)CC[C@H]5[C@H](C)CC[C@@H]([C@H]2C)[C@@]35OO4)cc1)C(=O)O` [Compound 302, (2-(4-(((3R,5aS,6R,8aS, 9R,10S,12R, 12aR)-3,6,9-trimethyldeca-hydro-12H-3,12-epoxy[1,2]dioxepino[4,3-i]isochromen-10-yl)oxy)phenyl)acetyl)-L-valine] gave an IC50 in the data set with HL-60 [1] of 20000 nM. This compound also had an EC50 in the data set with HL-60 [2] of 16.2 nM.

Take `C[C@H]1[C@@H](OCc2ccc(C(=O)O)cc2)O[C@@H]2O[C@@]3(C)CC[C@H]4[C@H](C)CC[C@@H]1[C@@]24OO3` [Artelinic acid (artelinate), artelinate]: the EC50 with MDS-L cells [9] was determined as 30 nM. In addition, the “Maximal MDS-L GlyA fold induction” value with MDS-L cells [10] (human) is 7.26 fold.

With `Cc1c(-c2ccc(-c3ccccc3F)cc2)nc2ccc(F)cc2c1C(=O)O` [Brequinar], the “Induction of differentiation of MDS-L cells (GlyA positivity), in words” value in the data set on MDS-L cells [10] (MDS-L cells) is given as “efficacious at inducing differentiation”.

Turning to `C[C@H]1[C@@H](O)O[C@@H]2O[C@@]3(C)CC[C@H]4[C@H](C)CC[C@@H]1[C@@]24OO3` [Dihydroartemisin, dihydro- artemisinin], the EC50 in the data set on MDS-L cells [9] was 610 nM. Moreover, the “Maximal MDS-L GlyA fold induction” value with MDS-L cells [10] (human) was 7.09 fold.

`C[C@@H]1CC[C@H]2[C@@H](C)C(=O)O[C@@H]3O[C@@]4(C)CC[C@@H]1[C@]32O4` [2-deoxy-artemisinin]: the “Induction of differentiation of MDS-L cells (GlyA positivity), in words” value with MDS-L cells [10] (MDS-L cells) was “inactive”.

`C[C@H]1[C@@H](Oc2ccc(C(=O)C(=O)O)cc2)O[C@@H]2O[C@@]3(C)CC[C@H]4[C@H](C)CC[C@@H]1[C@@]24OO3` [Compound 128, 2-oxo-2-(4-(((3R,5aS,6R,8aS, 9R,10S,12R, 12aR)-3,6,9-trimethyldeca-hydro-12H-3,12-epoxy[1,2]dioxepino[4,3-i]isochromen-10-yl)oxy)phenyl) acetic acid]: the response in the data set with HL-60 [3] was half-maximal at 1220 nM (EC50). In the data set on HL-60 [4], this compound yielded an IC50 of 20000 nM.

Artefenomel [Artefenomel (OZ-439)]: in the data set on MDS-L cells [10] (setting [11]), the “Maximal MDS-L GlyA fold induction” value was 3.71 fold and the EC50 was determined as 5650 nM.

Consider `CCO[C@H]1O[C@@H]2O[C@@]3(C)CC[C@H]4[C@H](C)CC[C@@H]([C@H]1C)[C@@]24OO3` [Arteether, arteether], for which the “Loss of CD71” value in the data set with MDS-L cells [6] is on record as “efficaciously promoted the loss of CD71”. Moreover, the “Terminal differentiation of MDS-L cells to CFU-Es while decreasing BFU-E, CFU-GM and CFU-GEMM type colonies” value in the data set with MDS-L cells [7] is “efficaciously induced terminal differentiation”. Also, the Induction in apoptosis entry with MDS-L cells [8] is “no significant induction”. In addition, the EC50 in the data set on MDS-L cells [9] amounted to 580 nM. Also, the “Maximal MDS-L GlyA fold induction” value in the data set with MDS-L cells [10] (human) was found to be 3.82 fold.

In the data set with HL-60 [1], `C[C@H]1[C@H](OC2CCc3cc(C(=O)O)ccc32)O[C@@H]2O[C@@]3(C)CC[C@H]4[C@H](C)CC[C@@H]1[C@@]24OO3` (stereo partly drawn) [Compound 225, 1-(((3R,5aS,6R,8aS, 9R,10R,12R, 12aR)-3,6,9-trimethyldeca-hydro-12H-3,12-epoxy[1,2]dioxepino[4,3-i]isochromen-10-yl)oxy)-2,3-dihydro-1H-indene-5-carboxylic acid] gave an IC50 of 20000 nM. The same compound gave an EC50 with HL-60 [2] of 203 nM.
